Experiments:
Format in all cases: in vivo
[1] = tested on: redroot pigweed (Amaranthus retroflexus, AMARE); test: Pre-emerge test, greenhouse herbicide activity screening; conditions: rated 14 days after application, 0 = no damage, 100 = complete death
Outline: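 Herbicidal damage is scored 0 (none) to 100 (complete plant death) two weeks after a simulated field spray. Rates span 15–1000 g ai/ha, delivered in acetone at 187 l/ha. For post-emergence treatments, plants have 2–3 leaves and the spray carries 0.25% v/v non-ionic surfactant.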

[2] = tested on: barnyardgrass (Echinochloa crus-galli, ECHCG); test: as above; conditions: rated 14 days after application, 0 = no damage, 100 = complete death
Outline: (§1)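 Compounds in acetone were track-sprayed at 15-1000 g ai/ha (187 l/ha) on sandy loam pots: pre-emerge one day after seeding, post-emerge at 2-3 leaf stage with 0.25% v/v non-ionic surfactant. Phytotoxicity was rated 14 days later on a 0 (no damage) to 100 (complete death) scale.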

[3] = tested on: common ragweed (Ambrosia artemisizfolia L., AMBEL); test: as above; conditions: rated 14 days after application, 0 = no damage, 100 = complete death
Outline: as §1

[4] = tested on: green foxtail (Setaria viridis, SETVI); test: as above; conditions: rated 14 days after application, 0 = no damage, 100 = complete death
Outline: as §1

[5] = tested on: ivyleaf morningglory (Ipomoea hederacea, IPOHE); test: as above; conditions: rated 14 days after application, 0 = no damage, 100 = complete death
Outline: as §1

[6] = tested on: johnsongrass (Sorghum halepense, SORHA); test: as above; conditions: rated 14 days after application, 0 = no damage, 100 = complete death
Outline: as §1

[7] = tested on: lambsquarters (Chenopodium album, CHEAL); test: as above; conditions: rated 14 days after application, 0 = no damage, 100 = complete death
Outline: as §1

[8] = tested on: large crabgrass (Digitaria sanguinalis, DIGSA); test: as above; conditions: rated 14 days after application, 0 = no damage, 100 = complete death
Outline: as §1

[9] = tested on: sicklepod (Cassia obtusifolia, CASOB); test: as above; conditions: rated 14 days after application, 0 = no damage, 100 = complete death
Outline: as §1

[10] = tested on: velvetleaf (Abutilon theophrasti, ABUTH); test: as above; conditions: rated 14 days after application, 0 = no damage, 100 = complete death
Outline: as §1

[11] = tested on: field corn (Zea mays L., var. Dekalb 535, CORN); test: Pre-emerge test, crop safety; conditions: rated 14 days after application, 0 = no damage, 100 = complete death
Outline: (§2)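 Sandy loam pots; pre-emerge: sown 1 d pre-spray, surface-watered after, then bottom-watered. Post-emerge: sown 8–21 d before, 2–3 leaf stage, + 0.25% v/v NIS, bottom-watered. Acetone, 187 l/ha track spray, 15–1000 g ai/ha. 0–100 injury score, day 14.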

[12] = tested on: upland rice (Oryza sp., var. Tebonnet, RICE); test: Pre-emerge test, crop safety; conditions: rated 14 days after application, 0 = no damage, 100 = complete death
Outline: as §2

[13] = tested on: barnyardgrass (Echinochloa crus-galli, ECHCG); test: Post-emerge test, greenhouse herbicide activity screening; conditions: post-emerge, 14 days after application, rating scale 0-100
Outline: (§3)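 Rating: 0–100 visual injury, 14 DAA. Application: acetone, 187 l/ha, 15–1000 g ai/ha, flat-fan track sprayer with nozzle 40–45 cm above soil or canopy. Post-emerge runs used 0.25% v/v surfactant on 2–3 leaf plants.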

[14] = tested on: common ragweed (Ambrosia artemisizfolia L., AMBEL); test: as above; conditions: post-emerge, 14 days after application, rating scale 0-100
Outline: as §3

[15] = tested on: green foxtail (Setaria viridis, SETVI); test: as above; conditions: post-emerge, 14 days after application, rating scale 0-100
Outline: as §3

[16] = tested on: ivyleaf morningglory (Ipomoea hederacea, IPOHE); test: as above; conditions: post-emerge, 14 days after application, rating scale 0-100
Outline: as §3

[17] = tested on: johnsongrass (Sorghum halepense, SORHA); test: as above; conditions: post-emerge, 14 days after application, rating scale 0-100
Outline: as §3

[18] = tested on: lambsquarters (Chenopodium album, CHEAL); test: as above; conditions: post-emerge, 14 days after application, rating scale 0-100
Outline: as §3

[19] = tested on: large crabgrass (Digitaria sanguinalis, DIGSA); test: as above; conditions: post-emerge, 14 days after application, rating scale 0-100
Outline: as §3

[20] = tested on: redroot pigweed (Amaranthus retroflexus, AMARE); test: as above; conditions: post-emerge, 14 days after application, rating scale 0-100
Outline: as §3

[21] = tested on: sicklepod (Cassia obtusifolia, CASOB); test: as above; conditions: post-emerge, 14 days after application, rating scale 0-100
Outline: as §3

[22] = tested on: velvetleaf (Abutilon theophrasti, ABUTH); test: as above; conditions: post-emerge, 14 days after application, rating scale 0-100
Outline: as §3

[23] = tested on: field corn (Zea mays L., var. Dekalb 535, CORN); test: Post-emerge test, crop safety; conditions: post-emerge, 14 days after application, rating scale 0-100
Outline: as §1

[24] = tested on: upland rice (Oryza sp., var. Tebonnet, RICE); test: Post-emerge test, crop safety; conditions: post-emerge, 14 days after application, rating scale 0-100
Outline: as §1

COc1c(Cl)cc(F)c(-n2c(=O)cc(C(F)(F)F)n(C)c2=O)c1N(C(=O)c1ccc(Cl)nc1)C(=O)c1ccc(Cl)nc1 [2-100]
Pre-emerge Herbicidal Activity, phytotoxicity rating (0-100), AMARE ([1]; 63 g ai/ha): 100
Pre-emerge Herbicidal Activity, phytotoxicity rating (0-100), AMARE ([1]; 250 g ai/ha): 100
Pre-emerge Herbicidal Activity, phytotoxicity rating (0-100), ECHCG ([2]; 63 g ai/ha): 70
Pre-emerge Herbicidal Activity, phytotoxicity rating (0-100), ECHCG ([2]; 250 g ai/ha): 90
Pre-emerge Herbicidal Activity, phytotoxicity rating (0-100), AMBEL ([3]; 63 g ai/ha): 90
Pre-emerge Herbicidal Activity, phytotoxicity rating (0-100), AMBEL ([3]; 250 g ai/ha): 100
Pre-emerge Herbicidal Activity, phytotoxicity rating (0-100), SETVI ([4]; 63 g ai/ha): 100
Pre-emerge Herbicidal Activity, phytotoxicity rating (0-100), SETVI ([4]; 250 g ai/ha): 100
Pre-emerge Herbicidal Activity, phytotoxicity rating (0-100), IPOHE ([5]; 63 g ai/ha): 100
Pre-emerge Herbicidal Activity, phytotoxicity rating (0-100), IPOHE ([5]; 250 g ai/ha): 100
Pre-emerge Herbicidal Activity, phytotoxicity rating (0-100), SORHA ([6]; 63 g ai/ha): 85
Pre-emerge Herbicidal Activity, phytotoxicity rating (0-100), SORHA ([6]; 250 g ai/ha): 100
Pre-emerge Herbicidal Activity, phytotoxicity rating (0-100), CHEAL ([7]; 63 g ai/ha): 100
Pre-emerge Herbicidal Activity, phytotoxicity rating (0-100), CHEAL ([7]; 250 g ai/ha): 100
Pre-emerge Herbicidal Activity, phytotoxicity rating (0-100), DIGSA ([8]; 63 g ai/ha): 90
Pre-emerge Herbicidal Activity, phytotoxicity rating (0-100), DIGSA ([8]; 250 g ai/ha): 100
Pre-emerge Herbicidal Activity, phytotoxicity rating (0-100), CASOB ([9]; 63 g ai/ha): 30
Pre-emerge Herbicidal Activity, phytotoxicity rating (0-100), CASOB ([9]; 250 g ai/ha): 100
Pre-emerge Herbicidal Activity, phytotoxicity rating (0-100), ABUTH ([10]; 63 g ai/ha): 100
Pre-emerge Herbicidal Activity, phytotoxicity rating (0-100), ABUTH ([10]; 250 g ai/ha): 100
Pre-emerge phytotoxicity rating (0-100), crop damage, CORN ([11]; 63 g ai/ha): 45
Pre-emerge phytotoxicity rating (0-100), crop damage, CORN ([11]; 250 g ai/ha): 95
Pre-emerge phytotoxicity rating (0-100), crop damage, RICE ([12]; 63 g ai/ha): 75
Pre-emerge phytotoxicity rating (0-100), crop damage, RICE ([12]; 250 g ai/ha): 90
phytotoxicity rating ECHCG ([13]; 63 g ai/ha): 0
phytotoxicity rating ECHCG ([13]; 250 g ai/ha): 30
phytotoxicity rating AMBEL ([14]; 63 g ai/ha): 70
phytotoxicity rating AMBEL ([14]; 250 g ai/ha): 90
phytotoxicity rating SETVI ([15]; 63 g ai/ha): 60
phytotoxicity rating SETVI ([15]; 250 g ai/ha): 70
phytotoxicity rating IPOHE ([16]; 63 g ai/ha): 100
phytotoxicity rating IPOHE ([16]; 250 g ai/ha): 100
phytotoxicity rating SORHA ([17]; 63 g ai/ha): 0
phytotoxicity rating SORHA ([17]; 250 g ai/ha): 60
phytotoxicity rating CHEAL ([18]; 63 g ai/ha): 80
phytotoxicity rating CHEAL ([18]; 250 g ai/ha): 80
phytotoxicity rating DIGSA ([19]; 63 g ai/ha): 0
phytotoxicity rating DIGSA ([19]; 250 g ai/ha): 20
phytotoxicity rating AMARE ([20]; 63 g ai/ha): 80
phytotoxicity rating AMARE ([20]; 250 g ai/ha): 100
phytotoxicity rating CASOB ([21]; 63 g ai/ha): 70
phytotoxicity rating CASOB ([21]; 250 g ai/ha): 60
phytotoxicity rating ABUTH ([22]; 63 g ai/ha): 100
phytotoxicity rating ABUTH ([22]; 250 g ai/ha): 100
phytotoxicity rating CORN ([23]; 63 g ai/ha): 15
phytotoxicity rating CORN ([23]; 250 g ai/ha): 80
phytotoxicity rating RICE ([24]; 63 g ai/ha): 45
phytotoxicity rating RICE ([24]; 250 g ai/ha): 70

— patent US6355799B1, “Substituted benzene compounds, process for their preparation, and herbicidal and defoliant compositions containing them” (ISK Americas Incorporated, priority 1997, dated 2002)
